From ChEMBL document CHEMBL1153302, “Synthesis and biological evaluation on novel analogs of 9-methylstreptimidone, an inhibitor of NF-kappaB” (Bioorg Med Chem Lett, 2009)
Converted amounts (≈) assume the structure as drawn. The source made the active and inactive calls. No cut-off for these calls is given here.

How the values were obtained:
[1] = Inhibition of NF-kappaB in LPS-induced mouse RAW264.7 cells assessed as inhibition of NO production after 24 hrs; format: cell-based
RAW264.7 [2] = assay: Cytotoxicity against mouse RAW264.7 cells by MTT colorimetric assay in presence of LPS; format: functional; conditions: read-out: ED50 (the source's name)
Jurkat = assay: Induction of apoptosis in human Jurkat cells; format: functional, cell-based
RAW264.7 [3] = assay: Inhibition of NF-kappaB in LPS-induced mouse RAW264.7 cells assessed as inhibition of iNOS expression after 24 hrs; format: cell-based
T-cell = assay: Induction of apoptosis in T cell leukemia; format: functional, cell-based
[4] = Mus musculus, RAW264.7, 24 h, read-out: IC50

| SMILES | IC50 [1, 4] | EC50 (RAW264.7 [2]) | IC50 ([1]; raw264.7) | Activity (Jurkat) | Activity (RAW264.7 [3]) | Activity (T-cell) |
| --- | --- | --- | --- | --- | --- | --- |
| CCCCCCCCCCCCSC(=O)CC1CC(=O)NC(=O)C1 | 1 µg/mL (≈ 2.81 µM) | 15 µg/mL | – | – | – | – |
| C/C=C\C(C)=C\[C@@H](C)C(=O)C[C@H](O)CC1CC(=O)NC(=O)C1 | – | – | Active | Active | Active | Active |
| CCCCCCCCCCCCSC(=O)CC1CC(=O)N(CC)C(=O)C1 | 2 µg/mL (≈ 5.21 µM) | 20 µg/mL | – | – | – | – |
| O=C1CC(C/C=C/C(=O)c2cccc(OCc3ccccc3)c2)CC(=O)N1 | 3 µg/mL (≈ 8.26 µM) | 8 µg/mL | – | – | – | – |
| CCCCCCCCCCCCSC(=O)CC1CC(=O)N(C)C(=O)C1 | 2 µg/mL (≈ 5.41 µM) | 8 µg/mL | – | – | – | – |

The next lines start with results.

| IC50 [1, 4] | SMILES | EC50 (RAW264.7 [2]) | IC50 ([1]; raw264.7) | Activity (Jurkat) | Activity (RAW264.7 [3]) | Activity (T-cell) |
| --- | --- | --- | --- | --- | --- | --- |
| > 30 µg/mL | CCCCCCCCCCCCNC(=O)CC1CC(=O)NC(=O)C1 | 25 µg/mL | – | – | – | – |
| > 30 µg/mL | CCCCCCCCCCCCOC(=O)CC1CC(=O)NC(=O)C1 | > 30 µg/mL | – | – | – | – |
| > 30 µg/mL | O=C(O)CC1CC(=O)NC(=O)C1 | > 30 µg/mL | – | – | – | – |
| > 30 µg/mL | O=C1CC(CC(=O)NC2CCCCC2)CC(=O)N1 | > 30 µg/mL | – | – | – | – |
| 30 µg/mL (≈ 118 µM) | CC(C)(C)OC(=O)/C=C/CC1CC(=O)NC(=O)C1 | > 30 µg/mL | – | – | – | – |
| > 30 µg/mL | CCCCCCOC(=O)CC1CC(=O)NC(=O)C1 | > 30 µg/mL | – | – | – | – |
| 15 µg/mL (≈ 55.3 µM) | CCCCCCSC(=O)CC1CC(=O)NC(=O)C1 | > 30 µg/mL | – | – | – | – |
| > 30 µg/mL | CCCCCCNC(=O)CC1CC(=O)NC(=O)C1 | > 30 µg/mL | – | – | – | – |
